Reference: ChEMBL document CHEMBL3046002, “Synthesis and antimicrobial activity of coumarin pyrazole pyrimidine 2,4,6(1H,3H,5H)triones and thioxopyrimidine4,6(1H,5H)diones” (2013)
Converted amounts (≈) assume the structure as drawn. The source made the active and inactive calls. No cut-off for these calls is given here.

What was measured:
Escherichia coli = experiment: Antimicrobial activity against Escherichia coli assessed as growth inhibition after 24 hr by broth dilution method; type: functional
Staphylococcus aureus = experiment: Antimicrobial activity against Staphylococcus aureus assessed as growth inhibition after 24 hr by broth dilution method; type: functional
Bacillus subtilis = experiment: Antimicrobial activity against Bacillus subtilis assessed as growth inhibition after 24 hr by broth dilution method; type: functional
Klebsiella pneumoniae = experiment: Antimicrobial activity against Klebsiella pneumoniae assessed as growth inhibition after 24 hr by broth dilution method; type: functional
Aspergillus niger [1] = experiment: Antimicrobial activity against Aspergillus niger assessed as growth inhibition zone after 48 hr by agar cup bioassay; type: functional, organism-based
Pseudomonas aeruginosa = experiment: Antimicrobial activity against Pseudomonas aeruginosa assessed as growth inhibition after 24 hr by broth dilution method; type: functional
[2] = tested on: Staphylococcus epidermidis; experiment: Antimicrobial activity against Staphylococcus epidermidis assessed as growth inhibition after 24 hr by broth dilution method; type: functional
Aspergillus niger [3] = experiment: Antimicrobial activity against Aspergillus niger assessed as diameter of growth inhibition zone at 100 ug/ml after 48 hr by agar cup bioassay; type: functional; details: read-out: DIZ
Aspergillus niger [4] = experiment: Antimicrobial activity against Aspergillus niger assessed as diameter of growth inhibition zone at 150 ug/ml after 48 hr by agar cup bioassay; type: functional; details: read-out: DIZ
Aspergillus niger [5] = experiment: Antimicrobial activity against Aspergillus niger assessed as diameter of growth inhibition zone at 30 ug/ml after 48 hr by agar cup bioassay; type: functional; details: read-out: DIZ

Row | SMILES | MIC (Escherichia coli) | MIC (Staphylococcus aureus) | MIC (Bacillus subtilis) | MIC (Klebsiella pneumoniae) | growth inhibition (GI) (Aspergillus niger [1]) | MIC (Pseudomonas aeruginosa) | MIC [2] | zone of inhibition at 100 µg/mL (Aspergillus niger [3]) | zone of inhibition at 150 µg/mL (Aspergillus niger [4]) | zone of inhibition at 30 µg/mL (Aspergillus niger [5])
1 | O=C1NC(=O)C(=Cc2cn(-c3ccccc3)nc2-c2cc3ccccc3oc2=O)C(=O)N1 | 300 µg/mL (≈ 704 µM) | 300 µg/mL (≈ 704 µM) | 300 µg/mL (≈ 704 µM) | 150 µg/mL (≈ 352 µM) | inactive | 150 µg/mL (≈ 352 µM) | 300 µg/mL (≈ 704 µM) | – | – | –
2 | O=C(O)c1cn(C2CC2)c2cc(N3CCNCC3)c(F)cc2c1=O [CIPROFLOXACIN] | 20 µg/mL (≈ 60.4 µM) | – | 24 µg/mL (≈ 72.4 µM) | 25 µg/mL (≈ 75.4 µM) | – | – | 22 µg/mL (≈ 66.4 µM) | – | – | –
3 | O=C1NC(=S)NC(=O)C1=Cc1cn(-c2ccccc2)nc1-c1cc2cc(Cl)c(Cl)cc2oc1=O | 600 µg/mL (≈ 1170 µM) | 150 µg/mL (≈ 293 µM) | 300 µg/mL (≈ 587 µM) | 150 µg/mL (≈ 293 µM) | inactive | 300 µg/mL (≈ 587 µM) | 300 µg/mL (≈ 587 µM) | – | – | –
4 | O=C1NC(=O)C(=Cc2cn(-c3ccccc3)nc2-c2cc3cc(Br)c(Br)cc3oc2=O)C(=O)N1 | 150 µg/mL (≈ 257 µM) | 150 µg/mL (≈ 257 µM) | 150 µg/mL (≈ 257 µM) | 300 µg/mL (≈ 514 µM) | – | 150 µg/mL (≈ 257 µM) | 150 µg/mL (≈ 257 µM) | 7 mm | 10 mm | –
5 | O=C1NC(=S)NC(=O)C1=Cc1cn(-c2ccccc2)nc1-c1cc2cc(Br)ccc2oc1=O | 300 µg/mL (≈ 575 µM) | 600 µg/mL (≈ 1150 µM) | 600 µg/mL (≈ 1150 µM) | 150 µg/mL (≈ 288 µM) | inactive | 300 µg/mL (≈ 575 µM) | 300 µg/mL (≈ 575 µM) | – | – | –
6 | OC(Cn1cncn1)(Cn1cncn1)c1ccc(F)cc1F [FLUCONAZOLE] | – | – | – | – | – | – | – | – | – | 30 mm
7 | O=C1NC(=O)C(=Cc2cn(-c3ccccc3)nc2-c2cc3cc(Cl)ccc3oc2=O)C(=O)N1 | 150 µg/mL (≈ 325 µM) | 150 µg/mL (≈ 325 µM) | 150 µg/mL (≈ 325 µM) | 150 µg/mL (≈ 325 µM) | inactive | 150 µg/mL (≈ 325 µM) | 150 µg/mL (≈ 325 µM) | – | – | –
8 | O=C1NC(=S)NC(=O)C1=Cc1cn(-c2ccccc2)nc1-c1cc2cc3ccccc3cc2oc1=O | 600 µg/mL (≈ 1220 µM) | 150 µg/mL (≈ 305 µM) | 300 µg/mL (≈ 609 µM) | 150 µg/mL (≈ 305 µM) | inactive | 150 µg/mL (≈ 305 µM) | 300 µg/mL (≈ 609 µM) | – | – | –
9 | O=C1NC(=O)C(=Cc2cn(-c3ccccc3)nc2-c2cc3cc(Cl)c(Cl)cc3oc2=O)C(=O)N1 | 300 µg/mL (≈ 606 µM) | 300 µg/mL (≈ 606 µM) | 300 µg/mL (≈ 606 µM) | 150 µg/mL (≈ 303 µM) | inactive | 150 µg/mL (≈ 303 µM) | 300 µg/mL (≈ 606 µM) | – | – | –
10 | O=C1NC(=O)C(=Cc2cn(-c3ccccc3)nc2-c2cc3cc4ccccc4cc3oc2=O)C(=O)N1 | 300 µg/mL (≈ 630 µM) | 300 µg/mL (≈ 630 µM) | 150 µg/mL (≈ 315 µM) | 300 µg/mL (≈ 630 µM) | inactive | 150 µg/mL (≈ 315 µM) | 300 µg/mL (≈ 630 µM) | – | – | –
11 | O=C1NC(=S)NC(=O)C1=Cc1cn(-c2ccccc2)nc1-c1cc2ccccc2oc1=O | 600 µg/mL (≈ 1360 µM) | 150 µg/mL (≈ 339 µM) | 300 µg/mL (≈ 678 µM) | 150 µg/mL (≈ 339 µM) | inactive | 300 µg/mL (≈ 678 µM) | 150 µg/mL (≈ 339 µM) | – | – | –
12 | O=C1NC(=O)C(=Cc2cn(-c3ccccc3)nc2-c2cc3cc(Br)ccc3oc2=O)C(=O)N1 | 600 µg/mL (≈ 1190 µM) | 150 µg/mL (≈ 297 µM) | 150 µg/mL (≈ 297 µM) | 150 µg/mL (≈ 297 µM) | – | 600 µg/mL (≈ 1190 µM) | 150 µg/mL (≈ 297 µM) | 14 mm | 20 mm | –
13 | O=C1NC(=S)NC(=O)C1=Cc1cn(-c2ccccc2)nc1-c1cc2cc(Cl)ccc2oc1=O | 300 µg/mL (≈ 629 µM) | 300 µg/mL (≈ 629 µM) | 150 µg/mL (≈ 315 µM) | 150 µg/mL (≈ 315 µM) | inactive | 150 µg/mL (≈ 315 µM) | 600 µg/mL (≈ 1260 µM) | – | – | –
14 | O=C1NC(=S)NC(=O)C1=Cc1cn(-c2ccccc2)nc1-c1cc2cc(Br)c(Br)cc2oc1=O | 150 µg/mL (≈ 250 µM) | 150 µg/mL (≈ 250 µM) | 150 µg/mL (≈ 250 µM) | 150 µg/mL (≈ 250 µM) | inactive | 150 µg/mL (≈ 250 µM) | 300 µg/mL (≈ 500 µM) | – | – | –
